Measurements published in patent US8524727B2, “Pyrimidine compound” (Astellas Pharma Inc., priority 2009, dated 2013).

What was measured:
[1] = biological target: T1, human CB2 (Homo sapiens, UniProt P34972); experiment: Human CB2-mediated cyclic AMP (cAMP) production inhibition assay; format: cell-based; conditions: 30 nM test substance, human CB2-expressing CHO cells, forskolin 0.5 μM, 30 minutes at room temperature; for inhibition at 0.03 µM: CHO, read-out: Inh (%): inhibitory rate of cAMP increase
T1 construct: expressed in transfected cells; host or cells: CHO cells
Description: The present test was performed using CHO cells expressing human CB2 (“Molecular Pharmacology”, 1995, vol. 48, p. 443-450).
A suspension of human CB2-expressing CHO cells (2.5×10^3/mL), and an assay medium added with a test substance and forskolin (final concentration 0.5 μM) were mixed in the equivalent amounts, and incubated at room temperature for 30 minutes. Then, the cAMP concentration in the cell lysis solution obtained by the addition of a 0.6% Triton X-100 solution was measured using a cAMP kit (manufactured by Cisbio international). The assay medium includes an α-MEM medium manufactured by Invitrogen, supplemented with 0.02% CHAPS, 1 mM isobutylmethyl xanthine, and 0.5 mg/mL bovine serum albumin. As the cAMP concentration in the cell suspension without the addition of forskolin was set as a cAMP increase rate of 0% and the cAMP concentration in the cell suspension with the addition of forskolin was set as a cAMP increase rate of 100%, the inhibitory rate of the intracellular cAMP increase at 30 nM test substance was determined.
In the table, Ex indicates Example Compound number below, and Inh indicates an inhibitory rate of cAMP increase.

[2] = test system: adjuvant-induced arthritis rats; experiment: Inhibitory effect on hind paw weight distribution in adjuvant-induced arthritis rats; format: in vivo; conditions: orally administered, female Lewis rats
Description: For the experiment, female Lewis rats (7-8 week old) were used. 50 μL of inactivated Mycobacterium tuberculosis H37 Ra (manufactured by DIFCO) suspended with liquid paraffin to 10 mg/mL was administered subcutaneously into the right hindlimb footpad. The test substance was orally administered next day, the weights of the left and right hind paws after an arbitrary time were measured using Incapasitance Tester (manufactured by Columbus Instruments), and the weight distribution between left and right was calculated. As the weight distribution of the group administered with the vehicle was set as the inhibitory rate of 0% and the weight distribution of the normal group was set as the inhibitory rate of 100%, the inhibitory rate of the test substance was calculated.
In the table, Ex indicates Example Compound number below, Inh indicates an inhibitory rate of the weight distribution, and the description after to @ means the administration amount.

T1 sequence (P34972 whole entry): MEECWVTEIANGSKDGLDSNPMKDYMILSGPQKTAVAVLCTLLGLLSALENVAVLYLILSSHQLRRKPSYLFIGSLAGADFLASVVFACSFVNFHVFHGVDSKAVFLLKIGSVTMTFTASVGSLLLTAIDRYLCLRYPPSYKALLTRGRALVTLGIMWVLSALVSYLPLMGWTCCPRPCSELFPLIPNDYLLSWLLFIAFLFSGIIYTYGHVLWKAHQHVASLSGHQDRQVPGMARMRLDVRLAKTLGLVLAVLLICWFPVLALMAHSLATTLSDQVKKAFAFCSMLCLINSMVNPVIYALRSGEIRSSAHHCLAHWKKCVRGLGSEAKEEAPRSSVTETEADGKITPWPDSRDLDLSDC

SMILES | inhibition at 0.03 µM [1] | further results
O=C(c1cnc(N[C@@H]2C[C@H]3CC[C@@H]2C3)nc1C(F)(F)F)N1CCS(=O)(=O)CC1 [Example 103] | 67% | Inh (%): inhibitory rate of the weight distribution ([2]; 0.3 mpk): 41@0.3 mpk %
CC1(C)CCN(c2ncc(C(=O)N3CCS(=O)(=O)CC3)c(C(F)(F)F)n2)c2ccccc21 [Example 55] | 63% | –
O=C(c1cnc(NC23CC4CC(CC(O)(C4)C2)C3)nc1C(F)(F)F)N1CC(F)(F)C(F)(F)C1 [Example 88] | 76% | –
O=C(c1cnc(N[C@@H]2C[C@H]3CC[C@@H]2C3)nc1C1CC1)N1CCS(=O)(=O)CC1 [Example 67] | 76% | –
CC(C)c1nc(N[C@@H]2C[C@H]3CC[C@@H]2C3)ncc1C(=O)N1CCOCC1 [Example 64] | – | Inh (%): inhibitory rate of the weight distribution ([2]; 0.1 mpk): 52@0.1 mpk %; Inh (%): inhibitory rate of cAMP increase [1]: 85%
CC1(C)[C@@H]2CC[C@@]1(C)[C@@H](Nc1ncc(C(=O)N3CCS(=O)(=O)CC3)c(C(F)(F)F)n1)C2 [Example 106] | 74% | –
CC(C)c1nc(N[C@H]2C[C@@H]3CC[C@H]2C3)ncc1C(=O)N1CCOCC1 [Example 79] | 74% | –
CC(C)c1nc(N[C@@H]2C[C@H]3CC[C@@H]2C3)ncc1C(=O)N1CCOCC1 [Example 83] | 84% | –
O=C(c1cnc(NC23CC4CC(CC(C4)C2)C3)nc1C(F)(F)F)N1CCC(F)(F)CC1 [Example 45] | 79% | –
CC(C)(C)c1nc(N[C@@H]2C[C@H]3CC[C@@H]2C3)ncc1C(=O)N1CCOCC1 [Example 72] | 99% | Inh (%): inhibitory rate of the weight distribution ([2]; 0.1 mpk): 40@0.1 mpk %
O=C(c1cnc(N[C@@H]2C[C@H]3CC[C@@H]2C3)nc1C(F)(F)F)N1CCS(=O)(=O)CC1 [Example 133] | – | Inh (%): inhibitory rate of cAMP increase [1]: 80%

Second part, led by results:

inhibition at 0.03 µM [1] | SMILES | further results
75% | FC1(F)CCN(Cc2cnc(N[C@@H]3C[C@H]4CC[C@@H]3C4)nc2C(F)(F)F)CC1 [Example 161] | –
80% | O=C(c1cnc(NC23CC4(F)CC(F)(CC(F)(C4)C2)C3)nc1C(F)(F)F)N1CCS(=O)(=O)CC1 [Example 109] | Inh (%): inhibitory rate of the weight distribution ([2]; 0.3 mpk): 35@0.3 mpk %
70% | O=C(c1cnc(NC23CCC(CC2)CC3)nc1C(F)(F)F)N1CCS(=O)(=O)CC1 [Example 122] | Inh (%): inhibitory rate of the weight distribution ([2]; 0.1 mpk): 45@0.1 mpk %
49% | O=C(c1cnc(N[C@H]2C[C@@H]3CC[C@H]2C3)nc1C(F)(F)F)N1CCS(=O)(=O)CC1 [Example 138] | –
70% | O=C(c1cnc(NC23CC4CC(CC(C4)C2)C3)nc1C(F)(F)F)N1CCOCC1 [Example 143] | –
